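A five-concentration, 48-hour dose response in 96-well plates underlies each endpoint, interpolated linearly between surrounding concentrations. TGI: concentration producing complete growth inhibition.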
Experiments:
Test in all cases: NCI anticancer screen, dose series, 48 h
786-0 renal = system: 786-0 renal
A498 renal = system: A498 renal
A549 NSCLC = system: A549 NSCLC
ACHN renal = system: ACHN renal
BT-549 breast = system: BT-549 breast
CAKI-1 renal = system: CAKI-1 renal
CCRF-CEM leukemia = system: CCRF-CEM leukemia
COLO 205 colon = system: COLO 205 colon
DU-145 prostate = system: DU-145 prostate
EKVX NSCLC = system: EKVX NSCLC
HCC-2998 colon = system: HCC-2998 colon
HCT-116 colon = system: HCT-116 colon
HCT-15 colon = system: HCT-15 colon
HL-60(TB) leukemia = system: HL-60(TB) leukemia
HOP-62 NSCLC = system: HOP-62 NSCLC
HOP-92 NSCLC = system: HOP-92 NSCLC
HS 578T breast = system: HS 578T breast
HT29 colon = system: HT29 colon
IGROV1 ovarian = system: IGROV1 ovarian
K-562 leukemia = system: K-562 leukemia
KM12 colon = system: KM12 colon
LOX IMVI melanoma = system: LOX IMVI melanoma
M14 melanoma = system: M14 melanoma
MALME-3M melanoma = system: MALME-3M melanoma
MDA-MB-231 breast = system: MDA-MB-231 breast
MDA-MB-435 = system: MDA-MB-435
MDA-N = system: MDA-N
MOLT-4 leukemia = system: MOLT-4 leukemia
NCI-H226 lung = system: NCI-H226 lung
NCI-H23 lung = system: NCI-H23 lung
NCI-H460 lung = system: NCI-H460 lung
NCI-H522 lung = system: NCI-H522 lung
NCI/ADR-RES ovarian = system: NCI/ADR-RES ovarian
OVCAR-3 ovarian = system: OVCAR-3 ovarian
OVCAR-4 ovarian = system: OVCAR-4 ovarian
OVCAR-5 ovarian = system: OVCAR-5 ovarian
OVCAR-8 ovarian = system: OVCAR-8 ovarian
PC-3 prostate = system: PC-3 prostate
RXF 393 renal = system: RXF 393 renal
SF-268 CNS = system: SF-268 CNS
SF-295 CNS = system: SF-295 CNS
SF-539 CNS = system: SF-539 CNS
SK-MEL-2 melanoma = system: SK-MEL-2 melanoma
SK-MEL-28 melanoma = system: SK-MEL-28 melanoma
SK-MEL-5 melanoma = system: SK-MEL-5 melanoma
SK-OV-3 ovarian = system: SK-OV-3 ovarian
SN12C renal = system: SN12C renal
SNB-19 CNS = system: SNB-19 CNS
SNB-75 CNS = system: SNB-75 CNS
SW-620 colon = system: SW-620 colon
TK-10 renal = system: TK-10 renal
U251 CNS = system: U251 CNS
UACC-257 melanoma = system: UACC-257 melanoma
UACC-62 melanoma = system: UACC-62 melanoma
UO-31 renal = system: UO-31 renal
MCF7 breast = system: MCF7 breast
RPMI-8226 leukemia = system: RPMI-8226 leukemia
SR leukemia = system: SR leukemia

Measured: TGI

CC(OC(C)(C)C)[C@H](NC(=O)OCc1ccccc1)C(=O)NC(OCc1ccccc1)[C@H]1COC(C)(C)O1 (stereo not given in full)
> 100 µM: A549 NSCLC | DU-145 prostate | HCT-116 colon | RXF 393 renal | SF-268 CNS | SK-MEL-28 melanoma
not listed: MCF7 breast | RPMI-8226 leukemia | SR leukemia
> 10 µM: all other assays above

COC(=O)C1(C(=O)OC)CC(=O)c2c(OC(=O)c3cccc(OC)c3C#N)ccc(OC(=O)c3cccc(OC)c3C#N)c2C1
not listed: BT-549 breast | SK-MEL-2 melanoma
> 100 µM: all other assays above

CC(C)C1(Cl)CCC2C3(C)CCCC(C)(C(=O)O)C3CC(Cl)C2(Cl)C1Cl (stereo not given)
46.5 µM: SF-539 CNS
37.7 µM: KM12 colon
37.2 µM: COLO 205 colon
82.5 µM: SK-MEL-5 melanoma
91.3 µM: EKVX NSCLC
84.4 µM: UACC-62 melanoma
78.6 µM: NCI-H226 lung
75.2 µM: NCI-H460 lung
50.4 µM: HT29 colon
62.3 µM: MDA-MB-435
72.1 µM: SK-MEL-28 melanoma
62.5 µM: U251 CNS
62.7 µM: RPMI-8226 leukemia
62.6 µM: HL-60(TB) leukemia
81.9 µM: HCC-2998 colon
94.7 µM: OVCAR-5 ovarian
84 µM: OVCAR-4 ovarian
not listed: DU-145 prostate | HOP-62 NSCLC | OVCAR-3 ovarian | RXF 393 renal | SF-295 CNS | SK-OV-3 ovarian | SNB-75 CNS
> 100 µM: all other assays above

NC(=O)C(N)CC12CC3CC(CC(C3)C1)C2 (stereo not given)
49.3 µM: HCC-2998 colon
30.4 µM: HOP-92 NSCLC
97.5 µM: EKVX NSCLC
44 µM: MDA-MB-435
91.7 µM: NCI/ADR-RES ovarian
55.4 µM: SK-MEL-28 melanoma
76.7 µM: UACC-257 melanoma
51.9 µM: PC-3 prostate
51.7 µM: NCI-H23 lung
43.5 µM: SR leukemia
30.7 µM: HCT-116 colon
55 µM: SK-MEL-2 melanoma
42.6 µM: HS 578T breast
72.6 µM: HT29 colon
37.4 µM: M14 melanoma
40.7 µM: 786-0 renal
47.8 µM: KM12 colon
44.2 µM: UO-31 renal
65.4 µM: OVCAR-8 ovarian
32.5 µM: RXF 393 renal
85.3 µM: TK-10 renal
34.7 µM: U251 CNS
41.2 µM: SN12C renal
44.4 µM: NCI-H522 lung
44.9 µM: MCF7 breast
64.7 µM: OVCAR-4 ovarian
28.3 µM: UACC-62 melanoma
28.5 µM: SK-MEL-5 melanoma
28.7 µM: MDA-N
54.6 µM: SNB-19 CNS
47.3 µM: RPMI-8226 leukemia
58.1 µM: MOLT-4 leukemia
29.9 µM: LOX IMVI melanoma
41.7 µM: MDA-MB-231 breast
92.5 µM: SF-268 CNS
> 100 µM: A549 NSCLC | ACHN renal | CAKI-1 renal | HCT-15 colon | K-562 leukemia | NCI-H460 lung | SK-OV-3 ovarian | SNB-75 CNS | SW-620 colon
42.4 µM: OVCAR-5 ovarian
54.9 µM: SF-295 CNS
33.7 µM: DU-145 prostate
63.7 µM: CCRF-CEM leukemia

CC1CC(NN)=Nc2ccccc2N1 (stereo not given)
not listed: HCC-2998 colon | HOP-92 NSCLC | LOX IMVI melanoma | RXF 393 renal | SF-539 CNS | SNB-75 CNS | MCF7 breast | SR leukemia
> 100 µM: all other assays above

Reference: PubChem BioAssay (NCI)
